# Measurements reported in BindingDB's records for doi:10.1021/jm990587w (Alcon Laboratories, 2000).
# Biological target: Prostaglandin F2-alpha receptor (Bos taurus)
# Assay: Inhibitory Binding constant (n=2) to Prostanoid FP receptor expressed in bovine corpus luteum
row,Ki,SMILES
1,56 µM,"O=C(O)CCC/C=C\C[C@@H]1[C@@H](/C=C/[C@H](O)COc2cccc(Cl)c2)[C@H](O)CC[C@@H]1O [7-{2-[4-(3-Chloro-phenoxy)-3-hydroxy-but-1-enyl]-3,6-dihydroxy-cyclohexyl}-hept-5-enoic acid]"
2,1.9 µM,"O=C(O)CCC/C=C\C[C@@H]1[C@@H](/C=C/[C@@H](O)COc2cccc(Cl)c2)[C@H](O)CC[C@@H]1O [7-{2-[4-(3-Chloro-phenoxy)-3-hydroxy-but-1-enyl]-3,6-dihydroxy-cyclohexyl}-hept-5-enoic acid]"
